Like-named read-outs stand apart in the source and are kept apart here. A value given as a limit tells only on which side of the number the result lay.

Consider nine molecules from patent US20110028507A1, “PYRIDINE DERIVATIVES AND METHODS OF USE THEREOF” (CRYSTALGENOMICS, INC., priority 2007, published 2011).

The test system of one test is EPO gene. The test is described as follows: Cell-based luciferase reporter assay, pEPO HRE-Luc in HeLa cells. The note with it: Homo sapiens, compound 100 μM, 24 hrs, read-out: EPO fold induction over control. From the text:
(§1) A luciferase assay was used to determine the changes in transcription amount of EPO and VEGF genes in cells. For the luciferase assay, a human HIF I a gene was first cloned into an animal cell expression vector, pFlag-CMV, to prepare a pFlag-HIF1α vector, and a hypoxia responsible element (HRE) sequence of an EPO gene 3′-enhancer domain was then cloned upstream of luciferase and TK promoter genes to prepare a pEPO HRE-Luc expression vector. Also, the promoter and luciferase domains of the VEGF gene were cloned into a pGL3-basic vector to prepare a pVEGF-Luc expression vector. HeLa cells were seed-cultured in a medium dish to grow to about 70-80% density one day before the HeLa cells were to be used. The HeLa cells were transfected with each of the prepared pEPO HRE-Luc and pVEGF-Luc expression vectors together with the pFlag-HIF1α and the Renilla luciferase expression vector (Promega, Madison, Wis., USA), by using LipofectAMINE PLUS™ (Invitrogen Life Technologies, Carlsbad Calif.). Three hours after the transfection, the medium was exchanged with DMEM, 1% Penicillin-Streptomycin in 10% FBS supplemented with serum. At this time, cultured cells were treated with each of the compounds at the concentrations indicated. Then, the cells were cultured for 24 hrs in an incubator that was maintained under conditions of 37° C., 20% O2 and 5% CO2. After culturing, cells were washed twice with cold phosphate buffer saline (PBS). Luciferase activity of the cells was measured using the dual luciferase assay system (Promega, Madison, Wis., USA).
A general note: A reporter such as luciferase makes a cellular process visible.

For a further test, the target named is T1, HIF-PH2 (EGLN1) (Homo sapiens, UniProt Q9GZT9).
T1 construct: made in house; host or cells: E. coli
Nature of the test: HIF-PH2 (PHD2) assay (fluorescence polarization method). Format: biochemical. The note with it: 200 nM HIF PH2 enzyme, 50 nM peptide substrate, 30° C. one hour; read-out: IC50 (HIF PH2 inhibition activity). As to the method: HIF-PH2 (EGLN1) was expressed from E. coli cells, and purified using two process: an Ni-affinity chromatography column and a size-exclusion chromatography column.
To evaluate activities of an HIF PH2 inhibitor, HIF PH2 enzyme that was first overexpressed by genetic recombination and then purified was used to perform an enzyme reaction. […] At this time, 2 mM ascorbic acid and 5 mM ketoglutarate with 100 μM FeCl2 or without FeCl2, were used together with crude enzyme. A concentration of HIF PH2 inhibitor to be tested was treated and reacted at 30° C. for one hour. After the reaction, the resulting reaction product was boiled at 95° C. for one minute to suppress the enzyme reaction.
To determine whether prolyl hydroxylation occurs in the substrate as the secondary reaction, 500 nM GST-VBC (GST-VHL-Elongin B-Elongin C) protein was added to a reaction buffer (50 mM Tris-Cl (pH8.0), 120 mM NaCl, 0.5% Nonidet P40), and a GST-VBC binding reaction was carried out at room temperature for 30 minutes.
A fluorescence polarization value of a sample that is not treated with the HIF PH2 inhibitor was used as 100% control, and the activities of the HIF PH2 inhibitor were measured as percentage of the remaining HIF PH2 enzyme activity in samples treated with a concentration of the HIF PH2 inhibitor to be tested.
(In fluorescence polarisation assays a small probe gives low polarisation when free and higher when bound to something large.)

Another test has as its system VEGF gene. The test is described as follows: Cell-based luciferase reporter assay, pVEGF-Luc in HeLa cells. The note with it: Homo sapiens, compound 100 μM, 24 hrs.
From the text: as §1

The subject of another test is EPO. The test is described as follows: Human EPO immunoassay (ELISA of Hep3B culture media). The note with it: Hep3B cells, compound at 100 μM, 24-hour incubation; for EPO (mIU/ml): culture media ELISA; for fold induction at 100 µM: Homo sapiens, read-out: Fold Induction over control (EPO Induction). The class given is cell-based. As to the method: Human cells derived from hepatocarcinoma (Hep3B) tissue (see, e.g., American Type Culture Collection, Manassas Va.) were grown at 37° C., 20% O2, 5% CO2 in DMEM (GIBCO)+10% FBS, 4.5 g/L D-Glucose; L-Glutamate and 110 mg/L sodium pyruvate. Ninety-six well plates were seeded with 4×10^4 HEP3B cells/well. The media was removed and replaced with DMEM+10% FBS. Compounds were added to wells at concentrations between 1 μM-100 μM for a 24-hour incubation. Cell culture media was harvested and EPO concentration was determined using a Human Erythropoietin Quantikine IVD ELISA Kit (R&D Systems®, Minneapolis, Minn.) following the manufacturer's instructions for the benchtop assay.

Where [1] appears, read: read-out: VEGF 1 fold induction over control.

T1 sequence (Q9GZT9 whole entry, species assumed): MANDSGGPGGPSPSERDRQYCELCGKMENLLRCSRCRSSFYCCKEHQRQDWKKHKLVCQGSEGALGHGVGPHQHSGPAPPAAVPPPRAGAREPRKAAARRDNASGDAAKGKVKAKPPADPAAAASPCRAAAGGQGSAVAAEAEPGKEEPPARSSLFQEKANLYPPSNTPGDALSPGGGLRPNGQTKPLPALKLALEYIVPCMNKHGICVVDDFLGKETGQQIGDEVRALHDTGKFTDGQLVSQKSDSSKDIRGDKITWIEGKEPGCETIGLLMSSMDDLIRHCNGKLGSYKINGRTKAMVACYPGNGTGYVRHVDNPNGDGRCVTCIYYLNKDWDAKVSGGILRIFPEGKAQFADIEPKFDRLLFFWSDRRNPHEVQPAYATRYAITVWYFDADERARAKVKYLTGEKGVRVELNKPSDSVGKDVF

With `O=C(O)CNC(=O)c1nc(Br)c2c(sc3ccccc32)c1O` [[(1-Bromo-4-hydroxy-benzo[4,5]thieno[3,2-c]pyridine-3-carbonyl)-amino]-acetic acid], the fold induction at 100 µM in the test on EPO gene is > 4.1; in the test with VEGF gene (setting [1]), 4. Further, on HIF-PH2 (EGLN1), the IC50 (in general, the concentration that inhibits the measured activity by half) was < 25 µM.
As to `O=C(O)CNC(=O)c1nc(Cl)c2c(sc3ccc([N+](=O)[O-])cc32)c1O` [[(1-Chloro-4-hydroxy-8-nitro-benzo[4,5]thieno[3,2-c]pyridine-3-carbonyl)-amino]-acetic acid], the fold induction at 100 µM was 2.1 to 4 in the test with EPO gene and > 4.1 in the test on VEGF gene (setting [1]). Moreover, on HIF-PH2 (EGLN1), the IC50 is < 25 µM.
In the case of `O=C(O)CNC(=O)c1nc(Cl)c2c(sc3ccccc32)c1O` [[(1-Chloro-4-hydroxy-benzo[4,5]thieno[3,2-c]pyridine-3-carbonyl)-amino]-acetic acid], the “EPO (mIU/ml)” value in the test with EPO is reported as “J (J = 21-40 mIU/ml)”. Also, the fold induction at 100 µM is 21 to 50 in the test with EPO, > 4.1 in the test on EPO gene, > 4.1 in the test with VEGF gene (setting [1]) and > 4.1 in the test with VEGF gene (read-out: VEGF 2 fold induction over control).
For the molecule `O=C(O)CNC(=O)c1nc(Cl)c2c(sc3c(F)cccc32)c1O` [[(1-Chloro-6-fluoro-4-hydroxy-benzo[4,5]thieno[3,2-c]pyridine-3-carbonyl)-amino]-acetic acid], the “EPO (mIU/ml)” value with EPO is recorded as “I (I = 0-20 mIU/ml)”. Besides, the fold induction at 100 µM is < 20 in the test on EPO, 2.1 to 4 with EPO gene and 2.1 to 4 in the test with VEGF gene (setting [1]). Besides, at HIF-PH2 (EGLN1), the IC50 is < 25 µM.
As for `O=C(O)CNC(=O)c1nc(Cl)c2c(sc3cc(F)ccc32)c1O` [[(1-Chloro-7-fluoro-4-hydroxy-benzo[4,5]thieno[3,2-c]pyridine-3-carbonyl)-amino]-acetic acid], the “EPO (mIU/ml)” value in the test on EPO was “K (K = 41-60 mIU/ml)”. For the same molecule, the fold induction at 100 µM with EPO is 51 to 70; with EPO gene it was > 4.1; in the test on VEGF gene (setting [1]) it was > 4.1. Further, at HIF-PH2 (EGLN1), the IC50 was < 25 µM.
In the case of `CN(C)c1ccc2sc3c(O)c(C(=O)NCC(=O)O)nc(Cl)c3c2c1` [[(1-Chloro-8-dimethylamino-4-hydroxy-benzo[4,5]thieno[3,2-c]pyridine-3-carbonyl)-amino]-acetic acid], the fold induction at 100 µM in the test on EPO gene and in the test with VEGF gene (setting [1]) was > 4.1 in each case. Further, the IC50 on HIF-PH2 (EGLN1) was < 25 µM.
On to `O=C(O)CNC(=O)c1nc(Cl)c2c(sc3ccc(F)cc32)c1O` [[(1-Chloro-8-fluoro-4-hydroxy-benzo[4,5]thieno[3,2-c]pyridine-3-carbonyl)-amino]-acetic acid], for which the “EPO (mIU/ml)” value in the test with EPO is listed as “J (J = 21-40 mIU/ml)”. The values for the fold induction at 100 µM with EPO, in the test with EPO gene and in the test on VEGF gene (setting [1]) were 21 to 50, > 4.1 and 2.1 to 4, respectively. Also, on HIF-PH2 (EGLN1), the IC50 was < 25 µM.
Turning to `O=C(O)CNC(=O)c1ncc2c(cnn2-c2ccccc2)c1O` [[(4-Hydroxy-1-phenyl-1H-pyrazolo[3,4-c]pyridine-5-carbonyl)-amino]-acetic acid], the fold induction at 100 µM is > 4.1 in the test on EPO gene and 2.1 to 4 with VEGF gene (setting [1]). In addition, the IC50 at HIF-PH2 (EGLN1) was < 25 µM.
On the same counts, the results for `O=C(O)CNC(=O)c1nc(Cl)c2c(cnn2-c2ccccc2)c1O` [[(7-Chloro-4-hydroxy-1-phenyl-1H-pyrazolo[3,4-c]pyridine-5-carbonyl)-amino]-acetic acid] are > 4.1, 2.1 to 4 and < 25 µM.
